Converted amounts (≈) assume the structure as drawn.
Key:
Format in all cases: cell-based
Escherichia coli NIHJ = test: antimicrobial activity, minimum inhibitory concentration, Escherichia coli NIHJ
Proteus vulgaris HX 19 = test: antimicrobial activity, minimum inhibitory concentration, Proteus vulgaris HX 19; settings: HX19
Method: (§1) The antimicrobial activities of the compounds prepared in the previous Examples were determined in a usual manner and the minimum inhibitory concentrations (in terms of μg/ml) are set forth in the Table below.

[1] = test system: Pseudomonas aeruginosa IID 5142; test: antimicrobial activity, minimum inhibitory concentration, Pseudomonas aeruginosa IID 5142; settings: IID5142
Method: as §1

Serratia No. 115 = test: antimicrobial activity, minimum inhibitory concentration, Serratia No. 115
Method: as §1

[2] = test system: Enterobacter aerogenes No. 101; test: antimicrobial activity, minimum inhibitory concentration, Enterobacter aerogenes No. 101; settings: Klebsiella aerogenes
Method: as §1

Row | SMILES | MIC (Escherichia coli NIHJ) [µg/mL] | MIC (Proteus vulgaris HX 19) [µg/mL] | MIC [1] [µg/mL] | MIC (Serratia No. 115) [µg/mL] | MIC [2] [µg/mL]
1 | COC1(NC(=O)C(NC(=O)c2nnc(O)nc2O)c2ccccc2)C(=O)N2C(C(=O)O)=C(COC(C)=O)CSC21 (stereo not shown) [Example 49] | 25 (≈ 43.5 µM) | 1.56 (≈ 2.72 µM) | 25 (≈ 43.5 µM) | 100 (≈ 174 µM) | 50 (≈ 87 µM)
2 | COC1(NC(=O)C(NC(=O)c2nnc(O)nc2O)c2ccc(O)cc2)C(=O)N2C(C(=O)O)=C(CSc3nnnn3C)CSC21 (stereo not shown) [Example 50] | 12.5 (≈ 19.3 µM) | 1.56 (≈ 2.41 µM) | 12.5 (≈ 19.3 µM) | 50 (≈ 77.3 µM) | 25 (≈ 38.7 µM)
3 | COC1(NC(=O)C(NC(=O)c2nnc(O)nc2O)c2ccc(O)cc2)C(=O)N2C(C(=O)O)=C(COC(N)=O)CSC21 (stereo not shown) [Example 52] | 25 (≈ 42.3 µM) | 1.56 (≈ 2.64 µM) | 25 (≈ 42.3 µM) | 100 (≈ 169 µM) | 50 (≈ 84.5 µM)

The next lines start with the values.

Row | MIC (Escherichia coli NIHJ) [µg/mL] | MIC (Proteus vulgaris HX 19) [µg/mL] | MIC [1] [µg/mL] | MIC (Serratia No. 115) [µg/mL] | MIC [2] [µg/mL] | SMILES
4 | 25 (≈ 41.3 µM) | 1.56 (≈ 2.58 µM) | 25 (≈ 41.3 µM) | 100 (≈ 165 µM) | 50 (≈ 82.6 µM) | COC1(NC(=O)C(NC(=O)c2nnc(SC)nc2O)c2ccccc2)C(=O)N2C(C(=O)O)=C(COC(N)=O)CSC21 (stereo not shown) [Example 51]
5 | 25 (≈ 37.7 µM) | 1.56 (≈ 2.35 µM) | 25 (≈ 37.7 µM) | 100 (≈ 151 µM) | 50 (≈ 75.4 µM) | COC1(NC(=O)C(NC(=O)c2nnc(S)nc2O)c2ccccc2)C(=O)N2C(C(=O)O)=C(CSc3nnc(C)s3)CSC21 (stereo not shown) [Example 53]

From patent publication US4226863A, “7-Methoxy cephalosporins” (Sumitomo Chemical Company, Limited, priority 1975, dated 1980)
